Tested on: respiratory epithelial cells

IL-13: human IL-13 (Peprotech, Inc.) added to the medium at 50 ng/mL to stimulate respiratory epithelial cells
AI948584 48086_at expression change (lot 1, Day 7, AI): −3.9 | AI971023 48539_at expression change (lot 1, Day 7, AI): −2.1 | AI984780 (52384_s_at) expression change (lot 1, Day 7, AI): −2.5 | AL040936 (45684_at) expression change (lot 1, Day 7, AI): −2.3 | AQP5 32909_at expression change (lot 1, Day 7, AI): −3.4 | ARHGEF4 36524_at expression change (lot 1, Day 7, AI): −4.1 | ARHV (82231_at) expression change (lot 1, Day 7, AI): −2.7 | AW022213 (79520_at) expression change (lot 1, Day 7, AI): −2.6 | AW025596 52634_at expression change (lot 1, Day 7, AI): −2.5 | AW025596 52637_g_at expression change (lot 1, Day 7, AI): −5.7 | B4GALT5 56373_at expression change (lot 1, Day 7, AI): −2.2 | BARX2 35425_at expression change (lot 1, Day 7, AI): −2.4 | BPGM (51261_at) expression change (lot 1, Day 7, AI): −3.7 | CBLB 514_at expression change (lot 1, Day 7, AI): −4.2 | CBLB 35632_at expression change (lot 1, Day 7, AI): −2 | COL12A1 (44730_at) expression change (lot 1, Day 7, AI): −3.5 | CRABP-II 1057_at expression change (lot 1, Day 7, AI): −5.4 | CRABP-II 41783_at expression change (lot 1, Day 7, AI): −8.8 | Clorf28 50075_at expression change (lot 1, Day 7, AI): −3.5 | DHCR24 (74557_s_at) expression change (lot 1, Day 7, AI): −2 | DKFZp434K1210 44682_at expression change (lot 1, Day 7, AI): −2.1 | DSC3 (79615_at) expression change (lot 1, Day 7, AI): −2.4 | DSC3a, b 47119_at expression change (lot 1, Day 7, AI): −2.8 | DSC3a, b 79615_at expression change (lot 1, Day 7, AI): −2.4 | EVPK 39569_at expression change (lot 1, Day 7, AI): −2 | FKBP5 (46271_at) expression change (lot 1, Day 7, AI): −2.3 | FLJ10298 (62490_f_at) expression change (lot 1, Day 7, AI): −4.5 | FLJ10718 52072_at expression change (lot 1, Day 7, AI): −3.8 | FLJ12541 43546_at expression change (lot 1, Day 7, AI): −10.1 | FLJ20048 (49196_at) expression change (lot 1, Day 7, AI): −4.3 | FLJ20500 43853_at expression change (lot 1, Day 7, AI): −2.1 | FLJ23309 45563_f_at expression change (lot 1, Day 7, AI): −2 | FLJ23516 47534_at expression change (lot 1, Day 7, AI): −4.1 | GABRP 40339_at expression change (lot 1, Day 7, AI): −2.1 | GAS41 (64121_at) expression change (lot 1, Day 7, AI): −2 | GJA1 32531_at expression change (lot 1, Day 7, AI): −8.8 | GK (61873_at) expression change (lot 1, Day 7, AI): −2.7 | GPD2 42720_at expression change (lot 1, Day 7, AI): −2 | GSTA3 58023 at expression change (lot 1, Day 7, AI): −2.7 | HEY1 44783_s_at expression change (lot 1, Day 7, AI): −4.5 | HIN-1 (46200_at) expression change (lot 1, Day 7, AI): −32.7 | HSPC195 44705_at expression change (lot 1, Day 7, AI): −2.4 | ID1 36619_r_at expression change (lot 1, Day 7, AI): −8 | IL20RA 42969_at expression change (lot 1, Day 7, AI): −2.1 | IVL 36355_at expression change (lot 1, Day 7, AI): −3.7 | KCNMA1 (47575_g_at) expression change (lot 1, Day 7, AI): −5.2 | KCNMA1 (53796_at) expression change (lot 1, Day 7, AI): −2.8 | KIAA0878 (48793_at) expression change (lot 1, Day 7, AI): −2.8 | KIAA1376 (62972_at) expression change (lot 1, Day 7, AI): −2.2 | KIAA1376 (64047_at) expression change (lot 1, Day 7, AI): −4 | KIAA1547 58531_g_at expression change (lot 1, Day 7, AI): −2.6 | KLF7 (42769_at) expression change (lot 1, Day 7, AI): −2.3 | KRT6B (62998_at) expression change (lot 1, Day 7, AI): −5.6 | KRT15 37582_at expression change (lot 1, Day 7, AI): −2.6 | LCE 45605_at expression change (lot 1, Day 7, AI): −2.6 | LMO4 1452_at expression change (lot 1, Day 7, AI): −2 | LOC51297 (55440_at) expression change (lot 1, Day 7, AI): −60.6 | LOC51297 (55442_g_at) expression change (lot 1, Day 7, AI): −181.3 | LOC51316 (63342_at) expression change (lot 1, Day 7, AI): −2.4 | LOC55893 (64071_at) expression change (lot 1, Day 7, AI): −3.5 | LOC129642 (42065_at) expression change (lot 1, Day 7, AI): −5.4 | LOC129642 (58288_at) expression change (lot 1, Day 7, AI): −7.2 | LOC131177 (43849_s_at) expression change (lot 1, Day 7, AI): −2.6 | LOC131177 (45394_s_at) expression change (lot 1, Day 7, AI): −2.3 | MGC12536 46924_at expression change (lot 1, Day 7, AI): −4.9 | MGC13102 (54791_at) expression change (lot 1, Day 7, AI): −3.9 | MGC14128 55924_at expression change (lot 1, Day 7, AI): −5.1 | MGC14128 (51669_r_at) expression change (lot 1, Day 7, AI): −4.4 | MGC14597 (46030_at) expression change (lot 1, Day 7, AI): −3.7 | MGC16207 43412_s_at expression change (lot 1, Day 7, AI): −2.6 | MGC16207 (65876_at) expression change (lot 1, Day 7, AI): −4 | N52554 47432_at expression change (lot 1, Day 7, AI): −2.7 | N71183 52473_at expression change (lot 1, Day 7, AI): −2.3 | PSCA (63958_at) expression change (lot 1, Day 7, AI): −6.5 | RAC2 32737_at expression change (lot 1, Day 7, AI): −4.9 | RIN1 1778_g_at expression change (lot 1, Day 7, AI): −2.1 | SCNN1B 39682_at expression change (lot 1, Day 7, AI): −7.6 | SEMA4B (46709_at) expression change (lot 1, Day 7, AI): −3.6 | SERPINA3 (75248_at) expression change (lot 1, Day 7, AI): −24.4 | SLC11A3 (45826_at) expression change (lot 1, Day 7, AI): −3.3 | SLC34A2 (48048_at) expression change (lot 1, Day 7, AI): −2 | SPON2 52576_s_at expression change (lot 1, Day 7, AI): −3 | SPRR1B 37160_at expression change (lot 1, Day 7, AI): −2.1 | STEAP 40297_at expression change (lot 1, Day 7, AI): −3.1 | T52027 (63150_at) expression change (lot 1, Day 7, AI): −2.9 | TCF8 33439_at expression change (lot 1, Day 7, AI): −2.1 | TGFBI (68339_at) expression change (lot 1, Day 7, AI): −4.2 | TNFAIP2 (74633_at) expression change (lot 1, Day 7, AI): −4.6 | TNNT1 36113_s_at expression change (lot 1, Day 7, AI): −5.5 | TPM1 36790_at expression change (lot 1, Day 7, AI): −3.3 | TPM1 36791_g_at expression change (lot 1, Day 7, AI): −3.2 | TPM1 36792_at expression change (lot 1, Day 7, AI): −3.9 | UCP2 37591_at expression change (lot 1, Day 7, AI): −12.7 | UGB 39220_at expression change (lot 1, Day 7, AI): −28.1 | VEGFC 1934_s_at expression change (lot 1, Day 7, AI): −2.4 | VIM 34091_s_at expression change (lot 1, Day 7, AI): −9.4 | W55956 46700_at expression change (lot 1, Day 7, AI): −2.3 | W72331 49486 at expression change (lot 1, Day 7, AI): −3.4 | AA167714 (54897_at) expression fold change (lot 1, Day 7, AI method): 3.9 fold | AA420479 (52539_at) expression fold change (lot 1, Day 7, AI method): 4.1 fold | AA582926 (52307_at) expression fold change (lot 1, Day 7, AI method): 3.8 fold | AA604375 (44127_at) expression fold change (lot 1, Day 7, AI method): 2.5 fold | ACP5 (677_s_at) expression, fold change upon IL-13 stimulation (lot 1, Day 7, AI method): 2.5 fold | ADAM8 (40712_at) expression, fold change upon IL-13 stimulation (lot 1, Day 7, AI method): 5.1 fold | ADAM28 (35479_at) expression, fold change upon IL-13 stimulation (lot 1, Day 7, AI method): 5 fold | AI565105 (54886_at) expression fold change (lot 1, Day 7, AI method): 2.4 fold | AI659927 (54033_at) expression fold change (lot 1, Day 7, AI method): 4.2 fold
